This experiment has as its system milk-induced eosinophilia and leukocytosis. Description: Milk-induced eosinophilia and leukocytosis in mice. To be noted: for Eosinophil (mean ± SD), post-treatment / Total leucocyte count (mean ± SD), post-treatment: 24 h after dosing, p.o. 1 h before boiled and cooled milk 4 ml/kg s.c., polyherbal extract 307 mg/kg, levocetirizine 0.9 mg/kg, fexofenadine 21 mg/kg; for Eosinophil (mean ± SD), pre-treatment / Total leucocyte count (mean ± SD), pre-treatment: before treatment, 6 mice/group. The format is in vivo, Swiss albino mice. The method, then:
The composition of the present invention was assessed using milk-induced cosinophilia and leukocytosis animal model to evaluate the anti-inflammatory activity.
Injection of milk into mice induces allergy response which in turn causes leucocytosis. Leukocytosis is the condition of having a high number of leukocytes in the blood. Leukocytes are white blood cells. Leukocytosis may be a temporary response to an allergy, infection or an injury as the body is healing naturally, or it can be a sign of disease.
Study was conducted to check the effect of extracts on milk-induced eosinophilia and leukocytosis in mice, by determining the count of eosinophils and leukocytes. For this model, 54 Swiss albino mice weighing in the range of 20-25 gm were used and divided in nine groups (6 mice/group). The eosinophils and leukocyte count was checked before and after treatment i.e. 24 hours after dosing with polyherbal formulation and standard drugs.
All the animals were maintained in the animal house under standard conditions: temperature (24±1° C.), relative humidity (45-55%), light (12 h) and dark (12 h) cycle, and were allowed free access to food and water ad libitum. After one-week acclimatization in the animal house, the animals were used for the experiments.
Polyherbal extract containing Nigella sativa 88 mg/kg, Tinospora cordifolia 158 mg/kg, Petasites hybridus 26 mg/kg and Perilla frutescens 35 mg/kg was suspended in carboxy methyl cellulose. The suspension thus contained 307 mg/kg of the extract.
Similarly, standard drugs levocetirizine and fexofenadine were prepared as per requirement
The treatment of polyherbal extract and standard drug formulation were given orally 1 hour prior to injection of boiled and cooled milk. After 24 hours, blood samples were collected from retro orbital plexus, under ketamine xylazine anesthesia. Total eosinophil and differential leukocyte count per cu·mm was anlysed using hematology analyzer before and after treatment.

The values that follow come from patent US20260021154A1, “HERBAL ANTI-INFAMMATORY COMPOSITION” (CIRA HERBALS LLP, priority 2022, published 2026).

Molecules are shown by their SMILES.

With `CC(C)(C(=O)O)c1ccc(C(O)CCCN2CCC(C(O)(c3ccccc3)c3ccccc3)CC2)cc1` (centres unmarked) [Fexofenadine], the “Eosinophil (mean ± SD), post-treatment” value was 0.183 ± 0.075 10^3/μL; the “Total leucocyte count (mean ± SD), post-treatment” value was 6.917 ± 0.436 10^3/μL; the “Eosinophil (mean ± SD), pre-treatment” value is on record as 0.17 ± 0.08 10^3/μL; the “Total leucocyte count (mean ± SD), pre-treatment” value is 7.87 ± 0.72 10^3/μL.
On the same counts, the results for `O=C(O)COCCN1CCN([C@H](c2ccccc2)c2ccc(Cl)cc2)CC1` [Levocetirizine] are 0.167 ± 0.082 10^3/μL, 6.950 ± 1.089 10^3/μL, 0.18 ± 0.08 10^3/μL and 6.95 ± 1.57 10^3/μL.
